Source: patent publication US7655677B2, “Composition and method for controlling house insect pest” (priority 2002, dated 2010)

How the values were obtained:
Type in all cases: in vivo
Coptotermes formosanus [1] = test: Test Example 14: Japanese red pine poison bait, spread from bait-treated to non-treated termites; conditions: for Mortality TS (Termite soldiers): 5 non-treated soldiers; for Mortality TW (Termite workers): 5 treated + 5 non-treated workers
Procedure: A Japanese red pine poison bait chemical prepared in the same manner as in Test Example 13, was placed in a cylindrical cup made of acrylic resin (i.e. a cup having a hole with a diameter of 10 mm formed in the bottom and having hard plaster (Dental Stone) set at the bottom in a thickness of 10 mm), and 5 termite workers (Coptotermes formosanus) starved for 3 days, were released and permitted to ingest for 48 hours. Such bait-treated 5 alive termite workers were transferred together with non-treated 5 termite workers and 5 termite soldiers to a cup wherein a filter paper containing water was placed, and they were kept at room temperature of 25° C., whereby the number of dead termite workers and soldiers was examined as the time passed, and the mortality was calculated by the following formula.
Mortality of workers (%)=(number of dead termite workers/treated 5 termite workers+non-treated 5 termite workers)×100
Mortality of soldiers (%) (number of dead termite soldiers/non-treated 5 termite soldiers)×100

Coptotermes formosanus [2] = test: Test Example 18: dust-coated termite workers mixed with non-treated termites, mortality with time; conditions: 0.5% dust; for Mortality TS (Termite soldiers): 10 non-treated soldiers; for Mortality TW (Termite workers): 15 treated + 10 non-treated workers
Procedure: 1 mg of each dust prepared in the same manner as in Test Example 17, was uniformly dispersed in a small size glass Petri dish with a diameter of 45 mm, and 15 termite workers (Coptotermes formosanus) were released and treated for dust coating. The treated termite workers were put into a cylindrical cup made of acrylic resin (i.e. a cup having a hole with a diameter of 10 mm formed in the bottom and having hard plaster (Dental Stone) set at the bottom in a thickness of 10 mm) containing a bait log, together with 10 non-treated termite workers and 10 non-treated termite soldiers. The cup was placed in a container having wet cotton laid over the bottom, and the container was maintained at room temperature of 25° C., whereby the number of dead termites in the cup was examined as the time passed, and the mortality was calculated by the following formula.
Mortality of termite workers (%)=(Number of dead termite workers/15 treated termite workers+10 non-treated termite workers)×100
Mortality of termite soldiers (%) (Number of dead termite soldiers/10 non-treated termite soldiers)×100

Lasius japonicus = test: Test Example 22: cotton ball with compound in 10% cane sugar solution, ant mortality
Procedure: 10 Ants (Lasius japonicus) were put into a test tube together with a cotton ball impregnated with 0.5 ml of a solution containing a sample compound in a predetermined concentration and containing 10% of cane sugar. […]

Structure (SMILES): CC(=NN=C(Cc1ccc(C(F)(F)F)cc1)c1ccc(F)cc1)N(C)C [Compound No. II-2, [4′-fluoro-2-(4-trifluoromethylphenyl)acetophenone]N′-[1-(dimethylamino)ethylidene]hydrazone]
- Mortality TS (Termite soldiers) (Coptotermes formosanus [1]; bait 0.05%, 6 Days later): 0%
- Mortality TW (Termite workers) (Coptotermes formosanus [1]; bait 0.05%, 6 Days later): 30%
- Mortality TS (Termite soldiers) (Coptotermes formosanus [1]; bait 0.05%, 8 Days later): 0%
- Mortality TW (Termite workers) (Coptotermes formosanus [1]; bait 0.05%, 8 Days later): 30%
- Mortality TS (Termite soldiers) (Coptotermes formosanus [1]; bait 0.05%, 15 Days later): 40%
- Mortality TW (Termite workers) (Coptotermes formosanus [1]; bait 0.05%, 15 Days later): 70%
- Mortality TS (Termite soldiers) (Coptotermes formosanus [1]; bait 0.1%, 6 Days later): 0%
- Mortality TW (Termite workers) (Coptotermes formosanus [1]; bait 0.1%, 6 Days later): 50%
- Mortality TS (Termite soldiers) (Coptotermes formosanus [1]; bait 0.1%, 8 Days later): 20%
- Mortality TW (Termite workers) (Coptotermes formosanus [1]; bait 0.1%, 8 Days later): 60%
- Mortality TS (Termite soldiers) (Coptotermes formosanus [1]; bait 0.1%, 15 Days later): 100%
- Mortality TW (Termite workers) (Coptotermes formosanus [1]; bait 0.1%, 15 Days later): 100%
- Mortality TS (Termite soldiers) (Coptotermes formosanus [2]; 1 Day later): 0%
- Mortality TW (Termite workers) (Coptotermes formosanus [2]; 1 Day later): 0%
- Mortality TS (Termite soldiers) (Coptotermes formosanus [2]; 8 Days later): 0%
- Mortality TW (Termite workers) (Coptotermes formosanus [2]; 8 Days later): 4%
- Mortality TS (Termite soldiers) (Coptotermes formosanus [2]; 15 Days later): 40%
- Mortality TW (Termite workers) (Coptotermes formosanus [2]; 15 Days later): 52%
- Mortality TS (Termite soldiers) (Coptotermes formosanus [2]; 19 Days later): 100%
- Mortality TW (Termite workers) (Coptotermes formosanus [2]; 19 Days later): 100%
- Mortality (Lasius japonicus; 10 ppm, 1 Day later): 0%
- Mortality (Lasius japonicus; 10 ppm, 2 Days later): 0%
- abnormal ratio (Lasius japonicus; 10 ppm, 2 Days later): 20%
- Mortality (Lasius japonicus; 10 ppm, 3 Days later): 40%
- Mortality (Lasius japonicus; 10 ppm, 8 Days later): 80%
- Mortality (Lasius japonicus; 10 ppm, 11 Days later): 100%
- Mortality (Lasius japonicus; 50 ppm, 1 Day later): 30%
- abnormal ratio (Lasius japonicus; 50 ppm, 1 Day later): 70%
- Mortality (Lasius japonicus; 50 ppm, 2 Days later): 100%
- Mortality (Lasius japonicus; 50 ppm, 3 Days later): 100%
- Mortality (Lasius japonicus; 50 ppm, 8 Days later): 100%
- Mortality (Lasius japonicus; 50 ppm, 11 Days later): 100%
